Results from US20140308317A1, “Polymeric Compounds And Methods Of Making And Using The Same” (CELLCEUTIX CORPORATION, priority 2012, published 2014).
Values after ≈ are worked out from the molar mass of the structure shown. Like-named read-outs stand apart in the source and are kept apart here.

Assays:
[1] = tested on: Klebsiella pneumoniae ATCC 13883; test: Minimum Inhibitory Concentration (MIC), modified microbroth dilution; type: cell-based; settings: Klebsiella pneumoniae, read-out: MIC50 K. Pnuemnoiae
[2] = Cytotoxicity colorimetric (tetrazolium) assay; type: cell-based, mouse; settings: mouse, NIH/3T3 cells (CRL-1658), NIH/3T3 cells; one hour with compound in serum-free media
Method: (§1) Cytotoxicity of the compounds was evaluated in a colorimetric assay using a transformed human liver cell line (HepG2, HB-8065) and an embryonic mouse cell line (NIH/3T3 cells, CRL-1658). This assay measures the bioreduction of a novel tetrazolium compound to a soluble formazan product by viable cells. HepG2 cells were seeded in 96 well plates at 2×10^4 cells/well in MEM medium with 10% fetal bovine serum (FBS) 24 hours prior to use. NIH/3T3 cells were seeded in 96 well plates at 2×10^4 cells/well in DMEM medium with 10% bovine calf serum (BCS) 24 hours prior to use. Cell monolayers were rinsed in serum-free media and incubated for one hour with compounds in serum-free media. After incubation, the media is replaced with serum supplemented media and live cells were measured using the Cell Titer 96 Aqueous […] Assay kit (Promega, Madison, Wis.). EC50 values were determined using a four parameter logistic equation: Y=Bottom+(Top-Bottom)/(1+10̂((LogEC50−X)*HillSlope)).
(§2) Actual results from a representative cytotoxicity assay are shown below in Table 2. Data is expressed as EC50 in μg/mL.

[3] = Cytotoxicity colorimetric (tetrazolium) assay; type: cell-based, human; settings: human, HepG2 cells (HB-8065), HepG2 cells; one hour with compound in serum-free media
Method: as §1, §2

[4] = tested on: Pseudomonas aeruginosa ATCC 10145; test: Minimum Inhibitory Concentration (MIC), modified microbroth dilution; type: cell-based; settings: Pseudomonas aeruginosa, read-out: MIC50 P. Aeruginosa
E. Coli ATCC 25922 = test: as above; type: cell-based; settings: Escherichia coli, read-out: MIC50 E. coli
[5] = tested on: Staphylococcus aureus ATCC 27660; test: as above; type: cell-based; settings: Staphylococcus aureus, read-out: MIC50 S. aureus
[6] = tested on: Enterococcus faecalis ATCC 29212; test: as above; type: cell-based; settings: Enterococcus faecalis, read-out: MIC50 E. faecalis
[7] = ATCC13883, K. pneumoniae (13883), overnight incubation (18 hours)
[8] = ATCC10145, P. aeruginosa (10145), overnight incubation (18 hours)
[9] = ATCC25922, E. coli (25922), overnight incubation (18 hours)
[10] = ATCC27660, S. aureus (27660), overnight incubation (18 hours)
[11] = ATCC29212, E. faecalis (29212), overnight incubation (18 hours)

SMILES | MIC50 [1, 7] [µg/mL] | EC50 at 1 h [2] [µg/mL] | EC50 at 1 h [3] [µg/mL] | MIC50 [4, 8] [µg/mL] | MIC50 (E. Coli ATCC 25922; [9]) [µg/mL] | MIC50 [5, 10] [µg/mL] | MIC50 [6, 11] [µg/mL] | MIC50 ([1]; ATCC13883, 18 h) [µg/mL] | MIC50 ([6]; ATCC29212, 18 h) [µg/mL] | MIC50 ([4]; ATCC10145, 18 h) [µg/mL] | MIC50 (E. Coli ATCC 25922; ATCC25922, 18 h) [µg/mL] | MIC50 ([5]; ATCC27660, 18 h) [µg/mL]
O=C(Nc1ccc(-c2ccc(N3CCNCC3)nc2)cc1F)Nc1ccc(-c2ccc(N3CCNCC3)nc2)cc1F [Compound 141] | 25 (≈ 43.8 µM) | 404 (≈ 708 µM) | 24.4 (≈ 42.8 µM) | 12.5 (≈ 21.9 µM) | 6.25 (≈ 11 µM) | 25 (≈ 43.8 µM) |  |  |  |  |  | 
N=C(N)NCCCc1cccc(-c2ccc3c4ccc(-c5cccc(CCCNC(=N)N)c5)cc4n(CCCNC(=N)N)c3c2)c1 [Compound 158] | 3.13 (≈ 5.07 µM) | 131 (≈ 212 µM) | 100 (≈ 162 µM) | 25 (≈ 40.5 µM) | 3.13 (≈ 5.07 µM) | 1.56 (≈ 2.53 µM) | 6.25 (≈ 10.1 µM) |  |  |  |  | 
N=C(N)NCCc1cc(C#Cc2ccc(C#Cc3cc(CCNC(=N)N)cc(CCNC(=N)N)c3)cc2)cc(CCNC(=N)N)c1 [Compound 199] | 1.56 (≈ 2.52 µM) | 116 (≈ 188 µM) | 135 (≈ 218 µM) | 12.5 (≈ 20.2 µM) | 1.56 (≈ 2.52 µM) | 0.78 (≈ 1.26 µM) | 12.5 (≈ 20.2 µM) |  |  |  |  | 
NCCCN1c2ccccc2Sc2ccccc21 [Compound 100] |  | 13 (≈ 50.7 µM) | 18 (≈ 70.2 µM) |  |  |  |  | 100 (≈ 390 µM) | 100 (≈ 390 µM) | 100 (≈ 390 µM) | 100 (≈ 390 µM) | 100 (≈ 390 µM)
NCCCOc1cc(OCCCN)cc(-c2ccc(C(=O)c3ccc(-c4cc(OCCCN)cc(OCCCN)c4)cc3)cc2)c1 [Compound 165] | > 50 | 357 (≈ 570 µM) | 355 (≈ 566 µM) | 25 (≈ 39.9 µM) | 50 (≈ 79.8 µM) | 6.25 (≈ 9.97 µM) | 25 (≈ 39.9 µM) |  |  |  |  | 
N=C(N)NCC(CNC(=N)N)c1cc(Br)cc(C#Cc2cccc(C#Cc3cc(Br)cc(C(CNC(=N)N)CNC(=N)N)c3)c2)c1 (stereo not shown) [Compound 191] | 6.25 (≈ 8.35 µM) | 17.4 (≈ 23.3 µM) | 70.3 (≈ 93.9 µM) | 6.25 (≈ 8.35 µM) | 3.13 (≈ 4.18 µM) | 1.56 (≈ 2.08 µM) | 3.13 (≈ 4.18 µM) |  |  |  |  | 
N=C(N)NCCCOc1cc(OCCCNC(=N)N)cc(-c2ccc3sc4ccc(-c5cc(OCCCNC(=N)N)cc(OCCCNC(=N)N)c5)cc4c3c2)c1 [Compound 172] | 0.78 (≈ 0.979 µM) | 41.4 (≈ 51.9 µM) | 35.7 (≈ 44.8 µM) | 6.25 (≈ 7.84 µM) | 0.78 (≈ 0.979 µM) | 0.049 (≈ 0.0615 µM) | 0.78 (≈ 0.979 µM) |  |  |  |  | 
N=C(N)NCCc1cc(CCNC(=N)N)cc(-c2csc(-c3cccc(-c4nc(-c5cc(CCNC(=N)N)cc(CCNC(=N)N)c5)cs4)c3)n2)c1 [Compound 137] | > 50 | 26.6 (≈ 36.1 µM) | 55.6 (≈ 75.4 µM) | 12.5 (≈ 17 µM) | 12.5 (≈ 17 µM) | 3.13 (≈ 4.25 µM) | 12.5 (≈ 17 µM) |  |  |  |  | 
NCCc1cc(CCN)cc(-c2csc(-c3cccc(-c4nccs4)c3)n2)c1 [Compound 136] | 50 (≈ 123 µM) | 250 (≈ 615 µM) | 4.12 (≈ 10.1 µM) | 50 (≈ 123 µM) | > 50 | 25 (≈ 61.5 µM) | 50 (≈ 123 µM) |  |  |  |  | 
NCCc1cc(CCN)cc(-c2cccc(-c3cc(CCN)cc(CCN)c3)c2)c1 [Compound 115] | 50 (≈ 124 µM) | 1130 (≈ 2810 µM) | > 1160 | > 50 | 25 (≈ 62.1 µM) | 25 (≈ 62.1 µM) | > 50 |  |  |  |  | 
NCCCn1c2cc(Br)ccc2c2ccc(Br)cc21 [Compound 106] | 25 (≈ 65.4 µM) | 107 (≈ 280 µM) | 61.9 (≈ 162 µM) | 100 (≈ 262 µM) | 12.5 (≈ 32.7 µM) | 12.5 (≈ 32.7 µM) |  |  |  |  |  | 
NCCc1ccc(C#Cc2cccc(C#Cc3ccc(CCN)c(CCN)c3)c2)cc1CCN [Compound 194] | > 50 | 154 (≈ 342 µM) | 192 (≈ 426 µM) | 12.5 (≈ 27.7 µM) | 12.5 (≈ 27.7 µM) | 1.56 (≈ 3.46 µM) | 6.25 (≈ 13.9 µM) |  |  |  |  | 
NCCCOc1cc(OCCCN)cc(-c2cccc(-c3cccc(-c4cc(OCCCN)cc(OCCCN)c4)c3)c2)c1 [Compound 144] | 6.25 (≈ 10.4 µM) | 320 (≈ 534 µM) | 448 (≈ 748 µM) | 6.25 (≈ 10.4 µM) | 3.13 (≈ 5.23 µM) | 0.195 (≈ 0.326 µM) | 6.25 (≈ 10.4 µM) |  |  |  |  | 
NCCc1cccc(-c2cc(-c3cccc(-c4cc(-c5cccc(CCN)c5)on4)c3)no2)c1 [Compound 128] | 25 (≈ 55.5 µM) | 22.3 (≈ 49.5 µM) | 47 (≈ 104 µM) | 25 (≈ 55.5 µM) | 12.5 (≈ 27.7 µM) | 1.56 (≈ 3.46 µM) | 1.56 (≈ 3.46 µM) |  |  |  |  | 
NCCCn1c2cc(-c3cccc(N)c3)ccc2c2ccc(-c3cccc(N)c3)cc21 [Compound 159] | 12.5 (≈ 30.7 µM) | 45.7 (≈ 112 µM) | 64.7 (≈ 159 µM) | 100 (≈ 246 µM) | 12.5 (≈ 30.7 µM) | 1.56 (≈ 3.84 µM) | 12.5 (≈ 30.7 µM) |  |  |  |  | 
NCCc1cc(C#Cc2ccc(C#Cc3cc(CCN)cc(CCN)c3)cc2)cc(CCN)c1 [Compound 198] | 50 (≈ 111 µM) | 282 (≈ 626 µM) | 185 (≈ 411 µM) | 50 (≈ 111 µM) | 50 (≈ 111 µM) | 25 (≈ 55.5 µM) | 50 (≈ 111 µM) |  |  |  |  | 
NCCc1cc(CCN)cc(-c2csc(-c3cccc(-c4nc(-c5cc(CCN)cc(CCN)c5)cs4)c3)n2)c1 [Compound 135] | > 50 | 34.5 (≈ 60.6 µM) | 134 (≈ 236 µM) | 25 (≈ 44 µM) | 50 (≈ 87.9 µM) | 6.25 (≈ 11 µM) | > 50 |  |  |  |  | 
N=C(N)NCCc1cc(C#Cc2cccc(C#Cc3cc(CCNC(=N)N)cc(CCNC(=N)N)c3)c2)cc(CCNC(=N)N)c1 [Compound 189] | 1.56 (≈ 2.52 µM) | 131 (≈ 212 µM) | 256 (≈ 413 µM) | 6.25 (≈ 10.1 µM) | 1.56 (≈ 2.52 µM) | 3.9 to 7.8 (≈ 6.3 to 12.6 µM) | 6.25 (≈ 10.1 µM) |  |  |  |  | 
NCCCn1cc(-c2ccc3oc4ccc(-c5cnn(CCCN)c5)cc4c3c2)cn1 [Compound 157] |  | 713 (≈ 1720 µM) | 461 (≈ 1110 µM) | 25 (≈ 60.3 µM) | 50 (≈ 121 µM) | 6.25 (≈ 15.1 µM) | 25 (≈ 60.3 µM) |  |  |  |  | 
